{
  "source": "patent US5300679A",
  "about": "“Substituted propane-phosphinic acid compounds” (Ciba-Geigy Corporation, priority 1987, dated 1994)",
  "tested_on": "pyramidal cells of hippocampal slice",
  "test": "Penicilline-induced \"epileptic\" hippocampal slice preparation",
  "format": "cell-based",
  "settings": "concentration of 6 μM",
  "experimental": "The GABAB antagonists of the present invention interact at the GABAB receptor with IC50 values starting from about 10^-7 M (moles/liter) in rat brain cortex membranes. […] The antagonism against baclofen has also been shown in in vitro electrophysiological models, such as the penicilline-induced \"epileptic\" hippocampal slice preparation, where baclofen, at a concentration of 6 μM inhibits \"epileptic\"-like discharges of pyramidal cells. The compounds of the invention antagonise the effects of baclofen at concentrations from approximately 10 to approximately 100 μM. In vivo, antagonism has been shown by ionophoresis of baclofen on rat cerebral cortex, and systemic application of antagonists in doses of 10-100 mg/kg. The muscle relaxant effects of baclofen measured in the rotarod model are also antagonized at doses of about 30 mg/kg ip.",
  "data": [
    {"smiles": "NCC(CC(=O)O)c1ccc(Cl)cc1", "note": "(stereo not shown) [baclofen]", "values": [
      {"measurement": "inhibition of \"epileptic\"-like discharges of pyramidal cells", "result": "inhibits"}
    ]}
  ]
}
